The source of these data is publication PMC4792136, “A generic screening platform for inhibitors of virus induced cell fusion using cellular electrical impedance” (Scientific Reports, 2016).

In test [1] the test system is RSV. The experiment in a line: RSV CEI fusion assay, live virus, 96-well. Type of test: cell-based, respiratory syncytial virus. To be noted: for IC50: human respiratory syncytial virus, read-out: RSV CEI 96 IC50. The text has this:
(§1) Impedance assays were setup in parallel to microscopy based fluorescent protein cytoplasmic mixing and cell content mixing T7 driven fusion assays. For testing small molecule inhibitors see cell content mixing, T7 driven reporter fusion assay protocol for cell infection, transfection and plating method. All other steps were as listed below.
(§2) Cos7-G cells were transfected with the RSV F expression vector (pCICO-Fopt) in 6 well plates using lipofectamine LTX as per manufacturer’s instructions (Invitrogen) or infected with RSV (MOI of 2). Four hours post infection/transfection, cells were trypsinized and re-suspended to 8 × 10^5 cells/ml. E-Plates were pre-blanked and Cos7-G and Cos7-R cells were seeded together at a 1:1 ratio for a final cell density of 5 × 10^4 cells/well. Plates were placed into the SP station, incubated at 37 °C in 5% CO2 and impedance was recorded every 15 min over 72 h.
(§3) The protocol is an adaptation of that described by Bagai and Lamb[29]. Cos7 cells were transfected with a plasmid containing Renilla luciferase under T7 promoter control (pGL80-T7RL) and an RSV F expression vector. For live virus fusion assay, transfection media was removed after 2 h and replaced with SF media containing RSV (MOI of 2). Two h post infection (4 h post initial transfection) cells were trypsinized and re-suspended to 8 × 10^5 cells/ml. Compounds were serially diluted in SF Opti-MEM media and added to opaque bottom, white microtitre plates (Corning) at 50 μl/well along with 25 μl of both Cos7 and BsrT7 cells added to each well to obtain a final concentration of 5 × 10^4 cells/well. After 24 h, media was exchanged with 50 μl/well Opti-MEM media supplemented with 2% FBS and 8 ng/ml Enduren Live Cell Substrate (Promega). After 6 h at 37 °C in a humidified incubator supplemented with 5% CO2, the plates were read using a Lucy 2 luminometer with 1 sec integration time. Assays were performed in triplicate.

Test [2] addresses T1, RSV F protein (Human respiratory syncytial virus A, UniProt P03420).
T1 construct: expressed in transfected cells; host or cells: Cos7 cells (transiently transfected), co-plated with BsrT7 cells
Put plainly: Cell content mixing T7 luciferase fusion assay, recombinant F, 96-well. Format: cell-based. The protocol:
as §3

In test [3] the target is T1, RSV F protein. The experiment in a line: recombinant F CEI fusion assay, 384-well. Format: cell-based.
From the text: as §1, §2
(§4) 384-well fusion assays were setup as per 96-well protocol with the following changes: Cos7 and BsrT7 cells were seeded at a final concentration of 1 × 10^4 cells/well. Compound titration was performed in a Biomek NX Laboratory Automation Workstation and added to a final volume of 25 μl/well. Luciferase activity was determined using an EnVision Multilabel reader (PerkinElmer).

Test [4] concerns the target T1, RSV F protein. The experiment in a line: Cell content mixing T7 luciferase fusion assay, recombinant F, 384-well. Type of test: cell-based. The protocol:
as §3, §4

The subject of test [5] is RSV. Set-up: method as in earlier work. To be noted: HEp-2 cells, MOI 0.2, 48 h, MTT; CPE data supplied by Biota Pharmaceuticals ref 35; cited from earlier work.
Test [6] has as its system RSV. Put plainly: Plaque-reduction neutralization (PRNT) assay, RSV. Conditions: human respiratory syncytial virus; RSV on vero cells; in Table S1 printed as ± followed by a range. Format: cell-based. On the technique in general: Plaque reduction counts the foci of infection that form in a cell layer.
The target of test [7] is T1, RSV F protein. Put plainly: recombinant F CEI fusion assay, 96-well. Type of test: cell-based. To be noted: cells transfected with noncoding empty vector (eV).
From the text: as §1, §2
The protocol is an adaptation of that described by Bagai and Lamb[29]. Cos7 cells were transfected with a plasmid containing Renilla luciferase under T7 promoter control (pGL80-T7RL) and an RSV F expression vector. For live virus fusion assay, transfection media was removed after 2 h and replaced with SF media containing RSV (MOI of 2). […] After 6 h at 37 °C in a humidified incubator supplemented with 5% CO2, the plates were read using a Lucy 2 luminometer with 1 sec integration time. […]

T1 sequence (P03420 137-574): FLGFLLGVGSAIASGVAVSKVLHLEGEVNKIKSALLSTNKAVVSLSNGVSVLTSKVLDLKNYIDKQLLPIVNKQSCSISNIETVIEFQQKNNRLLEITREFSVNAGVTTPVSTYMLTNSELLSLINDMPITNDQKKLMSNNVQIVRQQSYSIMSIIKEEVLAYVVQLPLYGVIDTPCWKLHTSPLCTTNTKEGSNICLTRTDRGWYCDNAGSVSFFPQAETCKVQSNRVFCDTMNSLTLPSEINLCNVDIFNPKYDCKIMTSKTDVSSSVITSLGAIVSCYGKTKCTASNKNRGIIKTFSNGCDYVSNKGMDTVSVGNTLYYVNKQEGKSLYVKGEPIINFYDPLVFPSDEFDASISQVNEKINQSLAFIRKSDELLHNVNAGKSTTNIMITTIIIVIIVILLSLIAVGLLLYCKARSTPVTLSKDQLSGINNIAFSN
T1 sequence (P03420 26-109): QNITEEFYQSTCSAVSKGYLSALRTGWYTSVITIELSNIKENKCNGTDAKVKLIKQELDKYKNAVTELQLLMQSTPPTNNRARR

As for `O=C(c1ccc(F)cc1)N1CCN2C(=O)c3ccncc3C12c1ccc(Cl)cc1` (centres unmarked) [BTA-1], the IC50 in test [1] was 0.398 µM; in test [2], 3.98 µM; in test [3] it was 6.31 µM; in test [4], 158 µM. The “CPE EC50” value in test [5] is -6.5 log10 M.

As for `O=C(c1ccoc1)N1CCN2C(=O)c3ccncc3[C@]12c1ccc(Cl)cc1` [BTA-2], the IC50 in test [1] was 0.02 µM; in test [2], 0.158 µM; in test [3], 0.251 µM; in test [4], 2.51 µM. Further, the “CPE EC50” value in test [5] is -7.9 log10 M.

Take `O=C(c1ccc(F)cc1)N1CCN2C(=O)c3cc[n+]([O-])cc3C12c1ccc(Cl)cc1` (centres unmarked) [BTA-3]: the IC50 in test [1] is 0.2 µM; in test [2] it was 2.51 µM; in test [3] it was 1 µM; in test [4] it was 31.6 µM. Further, in test [5], the “CPE EC50” value is listed as -6.8 log10 M.

Consider `O=C(c1ccoc1)N1CCN2C(=O)c3cc[n+]([O-])cc3[C@]12c1ccc(Cl)cc1` [BTA-4], for which the IC50 in test [1] is 0.0398 µM; in test [2], 1 µM; in test [3], 2.51 µM; in test [4] it was 7.94 µM. In test [5], the “CPE EC50” value was -7.6 log10 M.

Turning to `Cc1ocnc1C(=O)N1CCN2C(=O)c3ccncc3[C@@]21c1ccc(Cl)cc1` [BTA-5], the 50% inhibitory concentration (IC50) in test [1] is 0.501 µM; in test [2] it was 12.6 µM; in test [3], 2.51 µM; in test [4], 79.4 µM. Also, the “CPE EC50” value in test [5] is listed as -6.6 log10 M.

`Cc1ocnc1C(=O)N1CCN2C(=O)c3ccncc3C21C1CCOCC1` (centres unmarked) [BTA-6]: the IC50 was 0.00501 µM in test [1], 0.0398 µM in test [2], 0.2 µM in test [3] and 1 µM in test [4]. Besides, the “CPE EC50” value in test [5] is reported as -8.5 log10 M.

For `O=C1c2ccncc2[C@@]2(c3ccc(Cl)cc3)N1CCN2C(=O)C1CC1` [BTA-7], the IC50 was 0.794 µM in test [1], 39.8 µM in test [2] and 12.6 µM in test [3]. Besides, in test [5], the “CPE EC50” value is recorded as -5.8 log10 M.

Regarding `Cc1ccc(CCCO)c(NCc2ccc3nc(NCCCN4CCOCC4)n(Cc4nc(C)ccc4O)c3c2)c1` [TMC-353121], the IC50 in test [6] is 0.0058 µM; in test [1] it was 0.000794 µM. Moreover, the “change in cell impedance of control cells” value in test [1] (control (uninfected) cells) is listed as “No change in cell impedance”. Besides, in test [7], the “effect on cell impedance of control cells” value is given as “No effect on cell impedance”.

What is called IC50 is the point on the concentration scale where inhibition reaches its midpoint.
